From article PMC7036995 (Molecules, 2020)
Read-outs that look alike come from different tables or passages of the source.

Tests used:
[1] = molecular target: T1, human serum albumin (HSA) (Homo sapiens, UniProt P02768); experiment: Fluorescence spectroscopy of HSA (Trp fluorescence quenching/enhancement; KD by DynaFit); type: binding; settings: for change of HSA fluorescence with increasing ligand concentration: λEX = 295 nm, T = 310.15 K, pH 7.4, HSA 5 μM; for Kd: HSA 5 μM, pH 7.4, read-out: KD (Fluor.)
T1 construct: purchased Sigma-Aldrich; host or cells: rice
Protocol: To find out if there was any interaction when both studied compounds were present, we performed an analysis of ternary mixtures, [(HSA + Q) + R] and [(HSA + R) + Q], when the first-added compound was pre-incubated with HSA at a constant concentration and the second compound was added at variable concentrations. The concentrations of the first-added drug in the ternary system was 5 μM for Q and 400 μM for R. These concentrations were chosen as an approximate half-saturation point for both compounds.
Therefore, as in previously published research [14], we used the DynaFit software script. Data input consisted of [Ltotal] (total ligand concentrations) for the variable reactant concentrations, [Ptotal] (total protein concentration) for the fixed reactant concentration, and F/F0 for the experimentally observed value. The software calculates [Lfree] (free ligand concentration), creates a semilogarithmic plot of F/F0 vs. [Lfree] and determines the KD value by finding the halfway point in the sigmoid-shaped curve.
Fluorescence spectra were measured in triplicates on a FluoroMax 4 spectrofluorimeter (Horiba Jobin Yvon Scientific, Irvine, CA, USA), equipped with a 1.0 cm path length quartz cell. The slit widths for the excitation and emission were 3.0 nm for all measurements. […] Samples were incubated for 2 min. Buffer background was subtracted from the raw spectra. Fluorescence intensities were corrected for the absorption of excitation light and re-absorption of emitted light to decrease the inner filter using the following relationship [13]:(2) Fcor=Fobs×10^(Aex+Aem)/2 where Fcor and Fobs are the corrected and observed fluorescence intensities, respectively. Aex and Aem are the absorbance values of the experimental solution (including all ligands) at excitation and emission wavelengths, respectively. Corrected spectra were smoothed to minimize the influence of the signal noise.
Fluorescence spectral data after correction and smoothing were used to calculate the dissociation constant (KD) for all studied systems. For evaluation and logarithmic plot fitting we used DynaFit software (version 4.0, BioKin Ltd., Watertown, MA, USA, http://www.biokin.com/dynafit/index.html) using a custom-written script.

[2] = molecular target: T2, bovine serum albumin (BSA) (Bos taurus, UniProt P02769); settings: λEX = 295 nm, T = 310.15 K, pH 7.4, BSA 5 μM
Protocol: Conditions: T = 310.15 K, pH = 7.4.
Conditions: λEX = 295 nm, T = 310.15 K, pH = 7.4. The HSA and BSA concentrations were 5 μM; FA concentrations were 0.52, 1.04, 2.08, 4.16, 8.33, 16.66, 33.33, 66.66 and 133.33 μM. R concentrations were 15.6, 31.25, 62.5, 125, 250, 500, 1000, 2000 and 4000 μM.
Fluorescence spectra were measured in triplicates on a FluoroMax 4 spectrofluorimeter (Horiba Jobin Yvon Scientific, Irvine, CA, USA), equipped with a 1.0 cm path length quartz cell. The slit widths for the excitation and emission were 3.0 nm for all measurements. The temperatures used for the measurements were 298.15 K, 303.15 K and 310.15 K, respectively. Samples were incubated for 2 min. Buffer background was subtracted from the raw spectra. Fluorescence intensities were corrected for the absorption of excitation light and re-absorption of emitted light to decrease the inner filter using the following relationship [13]:(2) Fcor=Fobs×10^(Aex+Aem)/2 where Fcor and Fobs are the corrected and observed fluorescence intensities, respectively. Aex and Aem are the absorbance values of the experimental solution (including all ligands) at excitation and emission wavelengths, respectively. Corrected spectra were smoothed to minimize the influence of the signal noise.

HSA = settings: cited from earlier work; for Kd: Sudlow's Site 1
human serum proteins = settings: concentration range 0.01 to 10 mg/L, equilibrium dialysis; cited from earlier work
[3] = molecular target: T2, bovine serum albumin (BSA); settings: Site 1 of BSA; read-out: dissociation constant KD; cited from earlier work
[4] = molecular target: T1, human serum albumin (HSA); experiment: Microscale thermophoresis (MST) with RED-NHS labeled HSA; type: binding
Protocol: We performed a full set of MST measurements for mixtures where R was the compound with the concentration gradient.
Figure 9 The MST binding curves for all studied systems. Conditions: T = 297.05 K, pH = 7.4. The concentration of HSA was 20 nM, the starting concentrations of R were 7.15 mM, c(Q) in the ternary system was 20 nM.
For [(HSA + Q) + R] system it was possible to additionally derive KD value from the increase in fluorescence in the initial capillary scans. The mechanism of this feature is the same as in the regular fluorescence experiment (Figure 5).
The MST measurements were performed on Monolith NT.115 (NanoTemper Technologies, GmbH, Germany) instrument using Premium capillaries. HSA sample was labeled using RED-NHS protein labeling kit. Assay buffer was PBS with added 0.1% Pluronic F-127 as the surface agent. Ligand samples were dissolved in DMSO and then diluted with the assay buffer to the final concentration. Serial dilutions of the ligand were prepared, the protein was then added and the mixtures were incubated for 10 min at laboratory temperature. Each experiment was performed in three parallel measurements. The results were evaluated in the instrument software (MO.Control v1.6, NanoTemper Technologies, GmbH, Germany).

T1 sequence (P02768 25-609): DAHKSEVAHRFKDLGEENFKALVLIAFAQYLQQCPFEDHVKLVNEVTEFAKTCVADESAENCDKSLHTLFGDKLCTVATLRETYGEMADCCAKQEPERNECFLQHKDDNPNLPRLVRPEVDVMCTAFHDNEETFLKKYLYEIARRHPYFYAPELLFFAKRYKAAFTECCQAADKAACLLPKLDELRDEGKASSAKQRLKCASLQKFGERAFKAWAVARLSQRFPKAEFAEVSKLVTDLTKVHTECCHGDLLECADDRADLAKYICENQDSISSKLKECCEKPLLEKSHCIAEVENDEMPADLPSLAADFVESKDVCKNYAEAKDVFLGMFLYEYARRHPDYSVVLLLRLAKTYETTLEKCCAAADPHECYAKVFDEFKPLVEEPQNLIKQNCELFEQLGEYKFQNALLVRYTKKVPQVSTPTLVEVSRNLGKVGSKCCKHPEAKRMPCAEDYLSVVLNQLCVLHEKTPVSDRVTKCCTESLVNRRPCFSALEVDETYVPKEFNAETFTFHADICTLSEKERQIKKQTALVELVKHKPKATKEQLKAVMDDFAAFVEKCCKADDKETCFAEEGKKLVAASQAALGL
T2 sequence (P02769 25-607): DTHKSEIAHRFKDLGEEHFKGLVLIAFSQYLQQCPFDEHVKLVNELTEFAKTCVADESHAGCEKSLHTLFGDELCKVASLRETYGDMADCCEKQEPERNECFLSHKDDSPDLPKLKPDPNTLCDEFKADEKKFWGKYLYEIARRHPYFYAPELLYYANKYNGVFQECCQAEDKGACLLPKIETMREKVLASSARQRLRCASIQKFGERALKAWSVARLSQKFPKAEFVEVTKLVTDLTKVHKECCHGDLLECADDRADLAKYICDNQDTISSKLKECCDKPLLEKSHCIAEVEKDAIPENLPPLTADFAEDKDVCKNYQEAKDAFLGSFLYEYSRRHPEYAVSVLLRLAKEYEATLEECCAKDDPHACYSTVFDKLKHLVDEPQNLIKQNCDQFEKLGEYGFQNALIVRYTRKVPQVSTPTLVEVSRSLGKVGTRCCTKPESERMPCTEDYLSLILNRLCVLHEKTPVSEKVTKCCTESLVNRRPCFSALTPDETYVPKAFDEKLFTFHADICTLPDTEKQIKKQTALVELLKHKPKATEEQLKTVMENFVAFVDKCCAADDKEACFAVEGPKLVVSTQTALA

Q: For `CC(=O)O[C@H]1C[C@@]2(C)[C@@H](C[C@@H](O)[C@H]3[C@@]4(C)CC[C@@H](O)[C@@H](C)[C@@H]4CC[C@@]32C)/C1=C(\CCC=C(C)C)C(=O)O` [fusidic acid], which “change of HSA fluorescence with increasing ligand concentration” value [1] is on record?
A: remains more or less constant

Q: What about the “change of BSA fluorescence with increasing ligand concentration” value [2] of the same compound?
A: decrease

Q: What does the source list for `O=c1c(O)c(-c2ccc(O)c(O)c2)oc2cc(O)cc(O)c12` [quercetin]?
A: Kd ([1]; binary system HSA + ligand): 2.28 ± 0.61 µM; Kd ([1]; ternary system [(HSA + R) + Q]: HSA pre-incubated with 400 μM R, Q varied): 34.7 ± 15.1 µM; Kd (HSA; ref 13): 6.1 µM; Kd (HSA; ref 14): 6.48 µM; bound to HSA (HSA): 99%

Q: What does the source list for `CCOC(=O)[C@H](CCc1ccccc1)N[C@@H](C)C(=O)N1[C@H](C(=O)O)C[C@@H]2CCC[C@@H]21` [ramipril]?
A: KD for binding of R compared with KD for Q ([1]; HSA): more than hundredfold larger; Kd ([1]; binary system HSA + ligand): 1220 ± 677 µM; Kd ([1]; ternary system [(HSA + Q) + R]: HSA pre-incubated with 5 μM Q, R varied): 593 ± 90.6 µM; change of HSA fluorescence with increasing ligand concentration [1]: increases; bound to human serum proteins (human serum proteins): 73%; Kd [3]: 28.5 µM; Kd ([4]; binary system HSA + R, T = 297.05 K, pH 7.4, HSA 20 nM, read-out: KD (MST)): 775 ± 75.3 µM; Kd ([4]; ternary system [(HSA + Q) + R], c(Q) 20 nM, HSA 20 nM, T = 297.05 K, pH 7.4, read-out: KD (MST)): 112 ± 24.6 µM; Kd ([4]; ternary system [(HSA + Q) + R], from increase in fluorescence in the initial capillary scans, c(Q) 20 nM, HSA 20 nM, read-out: KD (MST Fluorescence)): 168 ± 29.8 µM

Q: For `C[C@H](N[C@@H](CCc1ccccc1)C(=O)O)C(=O)N1[C@H](C(=O)O)C[C@@H]2CCC[C@@H]21` [ramiprilat], which “bound to human serum proteins” value (human serum proteins) is on record?
A: 56%
